From US10166225B2, “Method for treating osteoporosis” (Exelixis, Inc., priority 2011, dated 2019)
Entries after “also recorded” stand apart in the source; their conditions may differ.

Columns and labels:
[1] = tested on: human bone marrow-derived CD34+ osteoclast precursor cells; experiment: Osteoclast differentiation assay (secreted TRACP 5b at day 7); type: cell-based
Experimental: The study was performed in four parts. In the first part, human bone marrow-derived CD34+ osteoclast precursor cells were cultured on bovine bone slices for 7 days, after which the formed osteoclasts were quantitated by measuring tartrate-resistant acid phosphatase 5b activity (TRACP 5b) in the culture medium.
The objective of this study was to investigate the effects of Compound 1 selected by the Sponsor on differentiation and activity of human osteoclasts and mouse osteoblasts in vitro. The effects on osteoclasts were studied using a model where bone marrow-derived human osteoclast precursor cells are cultured on bovine bone slices for 7 days in conditions favouring osteoclast differentiation, and allowed to differentiate into bone-resorbing osteoclasts. After completion of osteoclast differentiation at day 7, the culture medium was removed and new culture medium favouring osteoclast activity was added into the wells. The mature osteoclasts were then cultured for an additional 3 days, allowing them to resorb bone. In the osteoclast differentiation assay, the test compounds and a reference inhibitor osteoprotegerin (OPG) were added into cultures at day 0. In the osteoclast activity assay, the test compounds and a reference inhibitor E64 were added into cultures at day 7. Seven concentrations in 8 replicates were tested in both assays. Tartrate-resistant acid phosphatase 5b activity (TRACP 5b) was measured from the culture medium collected at day 7 as an index of the number of osteoclasts formed in each well during the differentiation period. C-terminal cross-linked telopeptides of type I collagen (CTX) was measured from the culture medium collected at day 10 to quantitate bone resorption during days 7-10.
A human osteoclast culture system was developed for use in this study where CD34+ osteoclast precursor cells derived from human bone marrow (Poietics® Human Osteoclast Precursors, Lonza, Walkersville, USA) are cultured on bovine bone slices in the presence of appropriate growth factors, including M-CSF and RANK-ligand (Rissanen et al. 2009). The cells are first allowed to differentiate into mature bone-resorbing osteoclasts, and the formed osteoclasts are then allowed to resorb bone. The test and reference compounds are added into the cell cultures at the beginning of the differentiation and/or the resorption period, and their effects on the differentiation and/or resorbing activity of osteoclasts are determined.
Secreted TRACP 5b is determined from the culture medium after the differentiation period using a commercially available method (BoneTRAPÒ, IDS Ltd, Boldon, UK). Secreted TRACP 5b describes accurately the number of osteoclasts formed in each well during the differentiation period. CTX is determined from the culture medium after the resorption period using a commercially available method (CrossLapsÒ for cultures, IDS Ltd, Boldon, UK). CTX describes accurately the amount of bone collagen degradation products released into the culture medium in each well during the resorption period.
In this study, human bone marrow-derived CD34+ stem cells (10000 cells/well) were suspended in culture medium and allowed to attach to bovine bone slices in 96-well tissue culture plates. The culture medium (containing 10% FBS, OCP BulletKit® Lonza, Walkersville, USA) was supplemented with appropriate amounts of important growth factors favoring osteoclast differentiation and activity, including M-CSF (33 ng/ml, OCP BulletKit® Lonza, Walkersville, USA) and RANK-ligand (66 ng/ml, OCP BulletKit® Lonza, Walkersville, USA) in 200 μl of medium. The cells were incubated in a CO2 incubator in humidified atmosphere of 95% air and 5% carbon dioxide at 37° C. for 7 days. The test compounds and reference compound OPG were added at day 0. Supernatants collected at day 7 were stored at −70° C. until analysis of TRACP 5b. TRACP 5b was measured from the culture medium (20 μl/sample) using VICTOR2™ Multilabel Counter (PerkinElmer, Waltham, Mass., USA). […]

[2] = tested on: KS483 mouse osteoprogenitor cells; experiment: Osteoblast differentiation assay (cellular ALP activity at day 8); type: cell-based
Experimental: In the third part, KS483 mouse osteoprogenitor cells were cultured for 8 days, after which the formed mature osteoblasts were quantitated by measuring the amount of intracellular alkaline phosphatase (ALP) activity. […] The effects on osteoblasts were studied using KS483 mouse osteoprogenitor cells that can be induced to differentiate into bone-forming osteoblasts. […] In the osteoblast differentiation assay, the cells were cultured for 8 days, after which the formed mature osteoblasts were quantitated by measuring the amount of intracellular alkaline phosphatase (ALP) activity. […] A culture system was established that can be used as an in vitro model for studying the effects of anabolic and estrogen-like compounds on osteoblast differentiation and activity. In this culture system mouse KS483 cells first proliferate and then differentiate into osteoblasts capable of forming mineralized bone nodules in the presence of ascorbic acid and ß-glycerophosphate (Fagerlund et al. 2009). The test and reference compounds are added into the cell cultures concomitantly with the medium change, and their effects on the differentiation and activity of osteoblasts are determined. Cellular ALP, a marker of osteoblast differentiation, is determined from the cell lysates as described earlier (Lowry et al. 1954). Secreted PINP, a marker of organic bone matrix formation, is determined from the culture medium using a commercially available method (Rat/Mouse PINP EIA, IDS Ltd, Boldon, UK). Calcium deposition, an index of inorganic bone matrix formation, is measured using a commercially available calcium assay (Roche Diagnostics). Mouse KS483 cells were cultured in T-75 tissue culture flasks in aMEM supplemented with 10% charcoal-stripped fetal bovine serum until 80-90% confluence. The cells were incubated in a CO2 incubator in humidified atmosphere of 95% air and 5% carbon dioxide at 37° C. After reaching 80-90% confluence, subcultures were prepared. Cells were removed from the flasks with trypsin treatment and counted. For induction of the maturation of osteoblasts and bone formation, the immature osteoblastic cells were plated in type I collagen-coated 96-well plates. The cells were cultured for 8 days with a supplement of ascorbic acid ([…]), and half of the media was changed every 3-4 days. The test compound and control substance (E2) were added in the beginning of the culture period and when the medium was changed. The cultures were stopped at day 8 by removing the culture media from the wells, and cell lysates were prepared. Cellular ALP activity and total protein content (Protein Assay, Bio-Rad Laboratories Inc, CA, USA) were quantitated by using VICTOR2™ Multilabel Counter (PerkinElmer, Waltham, Mass., USA).

- number of Hoechst and TRACP positive mononuclear cells (microscopic analysis) ([1]; 0.11 and 0.33 μM): did not affect
Structure (SMILES): COc1cc2nccc(Oc3ccc(NC(=O)C4(C(=O)Nc5ccc(F)cc5)CC4)cc3)c2cc1OC [Compound 1, N-(4-{[6,7-bis(methyloxy)quinolin-4-yl]oxy}phenyl)-N′-(4-fluorophenyl)cyclopropane-1,1-dicarboxamide]
- number of Hoechst and TRACP positive mononuclear cells (microscopic analysis) ([1]; 1.0 and 3.0 μM, effects at least partly cytotoxic): decreased
- activity at 0.004 µM ([1]; Homo sapiens, Osteoclast, 168 h, 0.004 μM Compound 1, read-out: TRACP 5b Activity at Day 7, Percent Activity (%) Compared to BL): 85%
- activity at 0.012 µM ([1]; Homo sapiens, Osteoclast, 168 h, 0.012 μM Compound 1, read-out: TRACP 5b Activity at Day 7, Percent Activity (%) Compared to BL): 80%
- activity at 0.037 µM ([1]; Homo sapiens, Osteoclast, 168 h, 0.037 μM Compound 1, read-out: TRACP 5b Activity at Day 7, Percent Activity (%) Compared to BL): 74%
- activity at 0.11 µM ([1]; Homo sapiens, Osteoclast, 168 h, 0.11 μM Compound 1, read-out: TRACP 5b Activity at Day 7, Percent Activity (%) Compared to BL): 45%
- activity at 0.33 µM ([1]; Homo sapiens, Osteoclast, 168 h, 0.33 μM Compound 1, read-out: TRACP 5b Activity at Day 7, Percent Activity (%) Compared to BL): 15%
- activity at 1 µM ([1]; Homo sapiens, Osteoclast, 168 h, 1.0 μM Compound 1, read-out: TRACP 5b Activity at Day 7, Percent Activity (%) Compared to BL): 4%
- activity at 3 µM ([1]; Homo sapiens, Osteoclast, 168 h, 3.0 μM Compound 1, read-out: TRACP 5b Activity at Day 7, Percent Activity (%) Compared to BL): 0%
- effect on osteoclast differentiation ([1]; significant with 0.11, 0.33, 1.0 and 3.0 μM concentrations): dose-dependent inhibition
- ALP values / osteoblast differentiation ([2]; 3.0 μM): decreased; also recorded: inhibitory effects
- ALP values / osteoblast differentiation ([2]; 0.012, 0.037, 0.11, 0.33 and 1.0 μM): increased; also recorded: dose-dependent stimulation
- activity at 0.004 µM ([2]; Mus musculus, Osteoblast, 192 h, 0.004 μM Compound 1, read-out: ALP Activity at Day 8, Percent Activity (%) Compared to BL): 109%
- activity at 0.012 µM ([2]; Mus musculus, Osteoblast, 192 h, 0.012 μM Compound 1, read-out: ALP Activity at Day 8, Percent Activity (%) Compared to BL): 113%
- activity at 0.037 µM ([2]; Mus musculus, Osteoblast, 192 h, 0.037 μM Compound 1, read-out: ALP Activity at Day 8, Percent Activity (%) Compared to BL): 134%
- activity at 0.11 µM ([2]; Mus musculus, Osteoblast, 192 h, 0.11 μM Compound 1, read-out: ALP Activity at Day 8, Percent Activity (%) Compared to BL): 181%
- activity at 0.33 µM ([2]; Mus musculus, Osteoblast, 192 h, 0.33 μM Compound 1, read-out: ALP Activity at Day 8, Percent Activity (%) Compared to BL): 166%
- activity at 1 µM ([2]; Mus musculus, Osteoblast, 192 h, 1.0 μM Compound 1, read-out: ALP Activity at Day 8, Percent Activity (%) Compared to BL): 117%
- activity at 3 µM ([2]; Mus musculus, Osteoblast, 192 h, 3.0 μM Compound 1, read-out: ALP Activity at Day 8, Percent Activity (%) Compared to BL): 57%
